This note sets out measurements from patent publication US20090318396A1, “CORTICOSTEROID LINKED BETA-AGONIST COMPOUNDS FOR USE IN THERAPY” (priority 2008, published 2009).

A short description of data set [1]: Stability of steroid C-21 esters, carbonates and carbamates in rat lung homogenate. As to conditions: for Mean [Parent] (nM) at 2 hrs, 37° C.: parent compound; for Mean % compound remaining at 2 hrs, 37° C.: 900 nM, n=3.
Procedure: Lungs from Fischer 344 rats were obtained fresh by overnight delivery at 4° C. from BioReclamation Inc. (Hicksville, N.Y.). Lungs were weighed and homogenized in a 1:3 w/v ratio with sterile phosphate buffered saline (PBS, 10 mM, pH 7.4) in glass vials on ice. After centrifugation at 3,000×g for 10 min at 4° C. the supernatant was decanted into sterile conical tubes and placed on ice. The total protein content of the supernatant was determined by the bicinchoninic acid (BCA) method (Pierce Biotechnology, Rockford, Ill.), using bovine serum albumin (BSA) as the standard. Lung homogenates were prepared to a final concentration of 1 mg total protein/mL in 10 mM PBS, pH 7.4.
Heat-inactivation was achieved by incubation at 80° C. for 30 min, after which the homogenate was allowed to cool to room temperature, stored overnight at 4° C. The homogenate was used for the assay and standard curve preparations. Before use, each homogenate preparation was equilibrated for 15 min in a 37° C. water bath. […] DMSO (2.7 uL) added to 3 mL of temperature-equilibrated homogenate served as a control. Aliquots (100 uL) of homogenate+compound were added to 400 μL quenching solution consisting of 100% HPLC-grade acetonitrile+500 ng/mL glyburide for the zero time point (n=3 for each time point).
The glyburide served as an internal LC/MS/MS standard. The remainder of each drug+homogenate solution was aliquoted into a 96-well tissue culture plates. After an additional 30 min and 120 min incubation at 37° C., 100 μL aliquots were added to 400 μL quenching solution. Denatured proteins in the quenching solution were separated by centrifugation at 3000×g for 2 min at 4° C., and 160 μL of the supernatants were transferred to new 96-well plate for analysis by LC/MS/MS. Collection plates were covered with plastic film and were kept on ice. For storage, covered plates were and kept stored at −80° C. until further use.
An aliquot of 50 μL of each sample was diluted with 50 μL of water containing internal standard at 4° C. The diluted samples were then centrifuged for 20 minutes at 3000 rpm at 4° C. An aliquot of 20 μL of the solution was injected into the TSQ Ultra Quantum.
LC/MS/MS system. The compounds were separated by HPLC using a HyPurity C18 HPLC column (30×2.1 mm, 5μ) from ThermoHypersil. A Multiplex LX-2 HPLC system (Cohesive Technologies, Franklin, Mass.) with two identical Agilent 1100 series binary pumps (P/N G1312A) were used for elution and separation. Samples were maintained at 4° C. in an HTS Pal autosampler (LEAP Technologies, Carrboro, N.C.) in order to reduce any potential spontaneous hydrolysis of the compounds before injection onto the HPLC. The analytes were eluted using the following mobile phases; Mobile phase A contained 1% acetonitrile in 10 mM ammonium formate aqueous solution with 1% formic acid. Mobile phase B contained 80% acetonitrile in 10 mM ammonium formate with 1% formic acid. The HPLC elution program used to elute the analytes was as follows:
The samples were further analyzed by tandem mass spectrometry using a TSQ Quantum Ultra triple quadrupole mass spectrometer (Thermo Finnigan, San Jose, Calif.) using a selective reaction monitoring (SRM) scan type. The mass spectrometry parameters used were as follows:
Nine-point standard curves for each test compound were prepared and analyzed in heat-inactivated lung homogenate. […] The data expressed in Table 2 represent the mean (n=3) percent remaining compound in both types of homogenate at 2 hours, 37° C.
Data set [2] deals with carbachol-induced bronchoconstriction. The experiment in a line: Carbachol-induced bronchoconstriction in sheep. The class given is in vivo. As to conditions: Example 52 4.7 mg, Salmeterol 2.5 mg, mean ± s.e.m, n=4. Here is the method:
Bronchoconstriction was evaluated as a function of increased pulmonary resistance following carbachol challenge. […] Test article was administered either by a pre-dosing or duration of action protocol. In the pre-dosing regimen, animals were dosed once daily for four days, with the last dose administered 1 hr before carbachol challenge. In the duration of action regimen, animals were dosed once daily for four days, with the last dose administered 24 hours before carbachol challenge. Test article and carbachol were administered by nebulized aerosol to intubated sheep.

The nature of data set [3]: Drug levels in plasma, BALF and lung after IT administration in the rat.
Procedure: Compounds of Examples 52 and 83 were formulated for intratracheal (IT) dosing in 10% EtOH, 90% Sterile Water, and dosed in male Sprague-Dawley rats at 3 mg/kg (Example 52) and 1 mg/kg (Example 83). Each dosing group consisted of 3 male, naïve purebred Sprague-Dawley rats. At dosing, the animals weighed ˜0.30 kg. The animals were fasted overnight prior to dose administration and up to 2 hr after dosing. The compounds were administered IT using a Penn Century Microsprayer (Model 1A-1B).
Blood samples were collected at 0.5, 2, and 4 hours post-dose. Each blood sample (0.5-0.6 mL per sample) was collected via the orbital sinus (following anesthesia for BAL procedure) into tubes containing EDTA anti-coagulant into containers surrounded by dry ice at 0.5, 2 and 4 hr (mean, n=6). Blood samples were stored at −20±5° C. until shipped for analysis.
The animals were anesthetized with an intramuscular (IM) injection of a ketamine/xylazine/acepromazine (80/10/2 mg/kg) cocktail at a dose volume of 1.1 mL/kg. A cannula (modified Bard® infant feeding tube) was inserted into the trachea. Warmed sterile saline was injected into the lungs. The lungs were gently massaged by palpation of the chest for approximately 45 seconds. The fluid (BALF) was recovered and placed on ice. The procedure was repeated two more times, and all three BALF samples pooled. The fluid was centrifuged under refrigerated conditions at 350 g for 10 minutes. The supernatant and cell pellet were collected and stored at approximately −70° C. until shipped for analysis.
Immediately following each BAL procedure, the lungs from each animal were removed, blotted dry, weighed, and stored frozen at −70° C. until shipped for analysis.
An LC/MS/MS method was used to measure the concentration of compound in plasma.
Add 3×w/v of 1×PBS buffer (90:10-PBS:ACN) to each lung tissue. Homogenize the sample w/Polytron (PT1200) and take 50 uL of supernatant and inject to LC/MSMS.
An aliquot of 50 μL of each plasma sample was treated with 100 mL of acetonitrile (ACN) containing internal standard. After the protein precipitation, an aliquot of 100 μL of the supernatant was transferred to a clean 96-well plate and mixed with 100 μL of water. An aliquot of 30 μL of the above solution was injected to the TSQ Ultra Quantum LC/MS/MS system.
A HyPurity C18 HPLC column (30×2.1 mm, 5μ) from ThermoHypersil (Part #: 22105-032130) was used. Mobile phase A contained 1% acetonitrile in 10 mM ammonium formate aqueous solution with 1% formic acid. Mobile phase B contained 80% acetonitrile in 10 mM ammonium formate with 1% formic acid. An Agilent 1100 series binary pump (P/N G1312A Bin Pump) was used for elution and separation. HTS Pal autosampler from LEAP Technologies, Carrboro, N.C. was used.
TSQ Quantum Ultra triple quadrupole mass spectrometer from Thermo Finnigan, San Jose, Calif. was used in selective reaction monitoring (SRM) operation mode, Tune file:
In data set [4] the test system is Ascaris suum antigen-induced bronchoconstriction and airway hyperreactivity. The data set can be described thus: Ascaris suum-induced pulmonary responses in sheep. As to conditions: duration of action regimen. It counts as in vivo. The procedure: One breath unit is defined as one breath of a 1% w/v carbachol solution. Test article was administered either by a pre-dosing or duration of action protocol. In the pre-dosing regimen, animals were dosed once daily for four days, with the last dose administered 1 hr before antigen. In the duration of action regimen, animals were dosed once daily for four days, with the last dose administered 24 hours before antigen. Test article, Ascaris antigen, and carbachol were administered by nebulized aerosol to intubated sheep.

The mark [5] stands for this setting: analyte after IT administration of Example 83, 1 mg/kg, 0.5 hr.
[6] abbreviates: analyte after IT administration of Example 83, 1 mg/kg, 2.0 hr.
The mark [7] stands for this setting: analyte after IT administration of Example 83, 1 mg/kg, 4.0 hr.

Broadly, the melting point is the temperature, or range, at which the solid turns liquid.

With `CCN(CC)Cc1ccc(C(=O)OCC(=O)[C@@]23O[C@H](C4CCCCC4)O[C@@H]2C[C@H]2[C@@H]4CCC5=CC(=O)C=C[C@]5(C)[C@H]4[C@@H](O)C[C@@]23C)cc1` [Example 30, 4-Diethylaminomethylbenzoic acid [[11β,16α]-[[((R)-cyclohexylmethylene)bis(oxy)]-11-hydroxypregna-1,4-diene-3,20-dion-21-yl]]ester], the melting point is 123.5 °C (dec.). In addition, in data set [1] (Active homogenate), the “Mean [Parent] (nM) at 2 hrs, 37° C.” value came out at 102 nM. Moreover, the “Mean % compound remaining at 2 hrs, 37° C.” value in data set [1] (Active rat lung homogenate) was determined as 46%. In addition, the “Mean % compound remaining at 2 hrs, 37° C.” value in data set [1] (Inactive (heat-inactivated) rat lung homogenate) is recorded as 51%. Also, the “Mean [Parent] (nM) at 2 hrs, 37° C.” value in data set [1] (Inactive homogenate) is 109 nM.
On to `OCc1cc(C(O)CNCCCCCCOCCCCc2ccccc2)ccc1O` (centres unmarked) [salmeterol], for which the “Lung Resistance (% Increase) at 2% Carbachol” value in data set [2] (Duration of action regimen (last dose 24 hours before carbachol), Ciclesonide 2.2 mg + Salmeterol Xinafoate 2.5 mg) was found to be 594 ± 56 % Increase; in data set [2] (Predosing regimen (last dose 1 hr before carbachol)), 352 ± 27 % Increase. Moreover, the “Plasma Conc” value was “BLQ” in data set [3] (analyte after IT administration of Example 52, 3 mg/kg, 0.5 hr); “BLQ” in data set [3] (analyte after IT administration of Example 52, 3 mg/kg, 2.0 hr); “BLQ” in data set [3] (analyte after IT administration of Example 52, 3 mg/kg, 4.0 hr); “BLQ” in data set [3] (setting [5]); “BLQ” in data set [3] (setting [6]); “BLQ” in data set [3] (setting [7]). The “BALF Conc” value in data set [3] (setting [5]), in data set [3] (setting [6]) and in data set [3] (setting [7]) was “BLQ” each time. Further, the “Effect on late phase bronchoconstriction and development of airway hyperreactivity” value in data set [4] is given as “reduced efficacy”.
